Measured values reported in patent US7563592B2, “Alizarin-based chromogenic substrates, their uses and composition containing same” (Biomerieux, S.A., priority 1999, dated 2009).

Assays:
[1] = test system: Klebsiella pneumoniae 023; assay: Comparison of glucoside substrates in semi-solid Columbia medium (Example 7); type: cell-based; settings: 0.05 g/l + iron citrate 0.05 g/l
[2] = test system: Enterococcus faecalis 117; assay: as above; type: cell-based; settings: 0.05 g/l + iron citrate 0.05 g/l
[3] = test system: Listeria ivanovii 032; assay: Effect of metal salts on the color of the marker part, substrate 50 mg/l in Columbia medium (Example 3); type: cell-based
Experimental: (§1) To the Columbia-base medium (46.37 g/l) supplemented with Alizarin-2-β-D-glucoside (50 mg/l), were added either Manganese chloride, Ammoniacal iron citrate, Tin chloride, or Aluminum sulfate, all at a concentration of 50 mg/l. A control medium with no metal salts was tested in parallel. After autoclaving, these various media were all used to prepare Petri dishes (20 ml per plate). […] It should be pointed out that intensity readings are in arbitrary units. The only purpose of giving these values is to make it possible to compare one strain with another in this respect. The same is true for the examples which follow. Similarly, the strains tested were taken from the Applicant's collection and the number given represents an internal reference specific to this collection. The same internal numbering system is also used in some of the examples given later on.

[4] = test system: Listeria welshimeri 023; assay: as above; type: cell-based
Experimental: as §1

[5] = test system: Bacillus thuringiensis 072; assay: β-glucosidase detection in API strip wells (Example 6); settings: 0.12 g/l + iron citrate 0.05 g/l; 24 H
[6] = test system: Citrobacter koseri 059; assay: Comparison of glucoside substrates in semi-solid Columbia medium (Example 7); type: cell-based; settings: 0.05 g/l + iron citrate 0.05 g/l
[7] = test system: Enterococcus faecium 009; assay: β-glucosidase detection in API strip wells (Example 6); settings: 0.12 g/l + iron citrate 0.05 g/l
[8] = test system: Listeria monocytogenes 022; assay: as above; settings: 0.12 g/l + iron citrate 0.05 g/l
[9] = test system: Escherichia hermannii; assay: β-galactosidase detection on semi-solid medium, clinical and environmental strains (Example 2); type: cell-based; settings: 50 mg/l + iron citrate 500 mg/l; 18 hours; 1 strain tested
[10] = test system: Klebsiella ozaenae; assay: as above; type: cell-based; settings: 50 mg/l + iron citrate 500 mg/l; 18 hours; 3 strains tested
[11] = test system: Citrobacter diversus; assay: as above; type: cell-based; settings: 50 mg/l + iron citrate 500 mg/l; 18 hours; 9 strains tested
[12] = test system: Serratia odorifera; assay: as above; type: cell-based; settings: 50 mg/l + iron citrate 500 mg/l; 18 hours; 1 strain tested
[13] = test system: Serratia spp.; assay: as above; type: cell-based; settings: 50 mg/l + iron citrate 500 mg/l; 18 hours; 14 strains tested
[14] = test system: Shigella dysenteriae; type: cell-based; settings: 50 mg/l + iron citrate 500 mg/l; 18 hours; 2 strains tested
[15] = test system: Proteus penneri; assay: β-galactosidase detection on semi-solid medium, clinical and environmental strains (Example 2); type: cell-based; settings: 50 mg/l + iron citrate 500 mg/l; 18 hours; 1 strain tested
[16] = test system: Acinetobacter spp.; assay: as above; type: cell-based; settings: 50 mg/l + iron citrate 500 mg/l; 18 hours; 53 strains tested
[17] = test system: Proteus vulgaris; assay: as above; type: cell-based; settings: 50 mg/l + iron citrate 500 mg/l; 18 hours; 4 strains tested
[18] = test system: Morganella morganii; assay: as above; type: cell-based; settings: 50 mg/l + iron citrate 500 mg/l; 18 hours; 12 strains tested
[19] = test system: Enterobacter cloacae; assay: as above; type: cell-based; settings: 50 mg/l + iron citrate 500 mg/l; 18 hours; 21 strains tested
[20] = test system: 367 different strains collected from clinical and environmental specimens; assay: β-galactosidase detection on semi-solid medium, all strains together (Example 2); type: cell-based; settings: 18 hours at 37° C.
[21] = test system: Citrobacter freundii; assay: β-galactosidase detection on semi-solid medium, clinical and environmental strains (Example 2); type: cell-based; settings: 50 mg/l + iron citrate 500 mg/l; 18 hours; 16 strains tested
[22] = test system: Providencia alcalifaciens; assay: as above; type: cell-based; settings: 50 mg/l + iron citrate 500 mg/l; 18 hours; 3 strains tested
[23] = test system: Proteus mirabilis; assay: as above; type: cell-based; settings: 50 mg/l + iron citrate 500 mg/l; 18 hours; 16 strains tested
[24] = test system: Shigella flexneri; assay: as above; type: cell-based; settings: 50 mg/l + iron citrate 500 mg/l; 18 hours; 2 strains tested
[25] = Manganese chloride 50 mg/l, 24 H
[26] = Manganese chloride 50 mg/l, 48 H

With `O=C1c2ccccc2C(=O)c2c1ccc(O[C@@H]1O[C@H](CO)[C@@H](O)[C@H](O)[C@H]1O)c2O` [Alizarin-2-β-D-glucoside] as the compound, how does the Color ([1]; 18 H) read?
The Color was “Purple”.

What about the Intensity ([1]; 18 H) of the same compound?
Its Intensity is 3.5 arbitrary units.

And the Color ([1]; 24 H)?
The Color was “Purple”.

And the Intensity ([1]; 24 H)?
The Intensity was 4 arbitrary units.

And the Color ([1]; 48 H)?
Its Color is “Purple”.

What about the Intensity ([1]; 48 H) of the same compound?
Its Intensity is 4 arbitrary units.

What about the Color ([2]; 18 H) of the same compound?
The Color was “Purple”.

And the Intensity ([2]; 18 H)?
Its Intensity is 3.5 arbitrary units.

What about the Color ([2]; 24 H) of the same compound?
Its Color is “Purple”.

And the Intensity ([2]; 24 H)?
The Intensity was 4 arbitrary units.

What about the Color ([2]; 48 H) of the same compound?
The Color was “Purple”.

And the Intensity ([2]; 48 H)?
Its Intensity is 4 arbitrary units.

What about the Color ([3]; Aluminum sulfate 50 mg/l, 24 H) of the same compound?
The Color was “red”.

What about the Intensity ([3]; Aluminum sulfate 50 mg/l, 24 H) of the same compound?
Its Intensity is 4 arbitrary units.

And the Color ([3]; Aluminum sulfate 50 mg/l, 48 H)?
Its Color is “red”.

And the Intensity ([3]; Aluminum sulfate 50 mg/l, 48 H)?
Its Intensity is 4 arbitrary units.

What about the Color ([3]; Control, no metal salt, 24 H) of the same compound?
Its Color is “purple”.

And the Intensity ([3]; Control, no metal salt, 24 H)?
Its Intensity is 2.3 arbitrary units.

And the Color ([3]; Control, no metal salt, 48 H)?
The Color was “purple”.

What about the Intensity ([3]; Control, no metal salt, 48 H) of the same compound?
The Intensity was 2.3 arbitrary units.

What about the Color ([3]; Iron citrate 50 mg/l, 24 H) of the same compound?
Its Color is “purple”.

What about the Intensity ([3]; Iron citrate 50 mg/l, 24 H) of the same compound?
Its Intensity is 4 arbitrary units.

What about the Color ([3]; Iron citrate 50 mg/l, 48 H) of the same compound?
Its Color is “purple”.

And the Intensity ([3]; Iron citrate 50 mg/l, 48 H)?
The Intensity was 4 arbitrary units.

And the Color [3, 25]?
Its Color is “purple”.

What about the Intensity [3, 25] of the same compound?
The Intensity was 2.3 arbitrary units.

What about the Color [3, 26] of the same compound?
Its Color is “purple”.

What about the Intensity [3, 26] of the same compound?
The Intensity was 2.3 arbitrary units.

What about the Color ([3]; Tin chloride 50 mg/l, 24 H) of the same compound?
The Color was “orange”.

What about the Intensity ([3]; Tin chloride 50 mg/l, 24 H) of the same compound?
The Intensity was 3 arbitrary units.

And the Color ([3]; Tin chloride 50 mg/l, 48 H)?
Its Color is “orange”.

And the Intensity ([3]; Tin chloride 50 mg/l, 48 H)?
The Intensity was 4 arbitrary units.

And the Color ([4]; Aluminum sulfate 50 mg/l, 24 H)?
The Color was “red”.

What about the Intensity ([4]; Aluminum sulfate 50 mg/l, 24 H) of the same compound?
Its Intensity is 4 arbitrary units.

And the Color ([4]; Aluminum sulfate 50 mg/l, 48 H)?
The Color was “red”.

And the Intensity ([4]; Aluminum sulfate 50 mg/l, 48 H)?
Its Intensity is 4 arbitrary units.

And the Color ([4]; Control, no metal salt, 24 H)?
The Color was “purple”.

And the Intensity ([4]; Control, no metal salt, 24 H)?
The Intensity was 2.3 arbitrary units.

What about the Color ([4]; Control, no metal salt, 48 H) of the same compound?
The Color was “purple”.

What about the Intensity ([4]; Control, no metal salt, 48 H) of the same compound?
The Intensity was 2.3 arbitrary units.

What about the Color ([4]; Iron citrate 50 mg/l, 24 H) of the same compound?
Its Color is “purple”.

What about the Intensity ([4]; Iron citrate 50 mg/l, 24 H) of the same compound?
Its Intensity is 4 arbitrary units.

What about the Color ([4]; Iron citrate 50 mg/l, 48 H) of the same compound?
Its Color is “purple”.

What about the Intensity ([4]; Iron citrate 50 mg/l, 48 H) of the same compound?
The Intensity was 4 arbitrary units.

And the Color [4, 25]?
Its Color is “purple”.

What about the Intensity [4, 25] of the same compound?
The Intensity was 2.3 arbitrary units.

What about the Color [4, 26] of the same compound?
Its Color is “purple”.

And the Intensity [4, 26]?
The Intensity was 2.7 arbitrary units.

And the Color ([4]; Tin chloride 50 mg/l, 24 H)?
Its Color is “orange”.

What about the Intensity ([4]; Tin chloride 50 mg/l, 24 H) of the same compound?
Its Intensity is 3 arbitrary units.

And the Color ([4]; Tin chloride 50 mg/l, 48 H)?
The Color was “orange”.

What about the Intensity ([4]; Tin chloride 50 mg/l, 48 H) of the same compound?
Its Intensity is 4 arbitrary units.

And the Color observed [5]?
Its Color observed is “Purple”.

What about the Color ([6]; 18 H) of the same compound?
Its Color is “Mauve”.

What about the Intensity ([6]; 18 H) of the same compound?
The Intensity was 2 arbitrary units.

And the Color ([6]; 24 H)?
Its Color is “Mauve”.

What about the Intensity ([6]; 24 H) of the same compound?
The Intensity was 3 arbitrary units.

And the Color ([6]; 48 H)?
Its Color is “Mauve”.

What about the Intensity ([6]; 48 H) of the same compound?
Its Intensity is 3.5 arbitrary units.

And the Color observed ([7]; 4 H)?
Its Color observed is “Purple”.

And the Color observed ([7]; 24 H)?
The Color observed was “Purple”.

And the Color observed ([8]; 4 H)?
Its Color observed is “Purple”.

And the Color observed ([8]; 24 H)?
Its Color observed is “Purple”.

For `O=C1c2ccccc2C(=O)c2c1ccc(O[C@@H]1O[C@H](CO)[C@H](O)[C@H](O)[C@H]1O)c2O` [Alizarin-2-β-D-galactoside], which “percentage of positive strains” value [9] is on record?
The value was 100%.

And the “percentage of positive strains” value [10]?
Its value is 100%.

What about the “percentage of positive strains” value [11] of the same compound?
Its value is 89%.

What about the “percentage of positive strains” value [12] of the same compound?
The value was 100%.

And the “percentage of positive strains” value [13]?
Its value is 86%.

And the “percentage of positive strains” value [14]?
Its value is 0%.

And the “percentage of positive strains” value [15]?
Its value is 0%.

And the “percentage of positive strains” value [16]?
The value was 0%.

And the “percentage of positive strains” value [17]?
The value was 0%.

What about the “percentage of positive strains” value [18] of the same compound?
Its value is 0%.

What about the “percentage of positive strains” value [19] of the same compound?
The value was 100%.

And the “color of colonies expressing β-galactosidase activity” value ([20]; 50 mg/l + iron citrate 500 mg/l)?
The value was “purple”.

And the “strains that selectively hydrolyzed this substrate (not the reference substrate)” value ([20]; of 367 strains)?
The value was “Eight”.

What about the “percentage of positive strains” value [21] of the same compound?
Its value is 100%.

What about the “percentage of positive strains” value [22] of the same compound?
Its value is 0%.

And the “percentage of positive strains” value [23]?
Its value is 0%.

And the “percentage of positive strains” value [24]?
Its value is 0%.
